The results in this text go back to paper PMC6211257, “Synthesis and cytotoxic activities of novel copper and silver complexes of 1,3-diaryltriazene-substituted sulfonamides” (Journal of Enzyme Inhibition and Medicinal Chemistry, 2018).

Several values for one entry are separate records, joined by “and”; a condition that tells them apart may be missing. Equal entries are not always repeated. Where two headings read alike, the source gives them in different places.

Data set [1] has as its system prostate cancer (PC-3) cells. Kind of data set: MTT cytotoxicity assay, PC-3. Type of data set: cell-based, human. The following applies: 48 h, means of three independent experiments. The text has this: (§1) The cells studied were obtained from the American Type Culture Collection (ATCC, Manassas, VA), and included human colorectal adenocarcinoma (DLD-1), cervix carcinoma (HeLa), breast adenocarcinoma (MDA-MB-231), colon adenocarcinoma (HT-29), endometrial adenocarcinoma (ECC-1), prostate cancer (DU-145 and PC-3), normal embryonic kidney (HEK-293), normal prostate epithelium (PNT-1A), and normal retinal pigment epithelium (ARPE-19) cells. As recommended by ATCC, cells were subjected to propagation using DMEM-F12 and RPMI-1640 media, with supplements 10% fetal bovine serum, L-glutamine (2 mM), penicillin (100 U/mL) and streptomycin ([…]) in a humidified atmosphere (5% CO2) at 37 °C. When the cultures reached 70–80% confluence, the cells were harvested using 0.25% trypsin (Sigma).
(§2) Cytotoxic activities were based on the reduction of (3–(4,5-dimethylthiazol-2-yl)-2,5-diphenyltetrazolium bromide) (MTT) by mitochondrial dehydrogenase of viable cells to give a blue formazan product which can be measured spectrophotometrically by UV–Vis measurements. MTT colorimetric assays were performed using 96 well plates. The cells were seeded in a 96 well plate at concentration 5.0 × 10^4 cells/well and incubated at 37 °C for 24 h. After treatment with various concentrations of the test compound (1, 5, 10, 25, 50, 100 and 200 μM), the cells were incubated for an additional 48 h at 37 °C. After incubation, the medium was removed, and the cells in each well were incubated with 100 μL MTT solution (5 mg/mL) for 4 h at 37 °C. MTT solutions were then discarded, and 100 μL DMSO were added to dissolve insoluble formazan crystals. Optical densities were measured at 570 nm (Varioskan Flash Multimode Reader, Thermo, Waltham, MA). Data were obtained from triplicate wells. Cytotoxic effects were determined in reference to negative controls (vehicle treated cells). Cytotoxicity was expressed as the mean percentage increase relative to the unexposed control (mean ± SD). All statistical analyses were performed using SPSS package program for Windows (Version 20, Chicago, IL). Control values were set to 0% cytotoxicity. Cytotoxicity data, where appropriate, were fitted to sigmoidal curves and a four-parameter logistic model was used to calculate the IC50 values, the concentration of material causing 50% inhibition, compared to the untreated controls. 5-Fluorouracil (5-FU) was also used as a control agent[21]^,[22].
A general note: Formazan colour is commonly taken as a measure of viable cells.

Data set [2] concerns normal embryonic kidney (HEK-293) cells. The experiment in a line: MTT cytotoxicity assay, HEK-293. Type of data set: cell-based, human. The following applies: 48 h, means of three independent experiments.
Text: as §1, §2

Data set [3] deals with normal retinal pigment epithelium (ARPE-19) cells. The experiment in a line: MTT cytotoxicity assay, ARPE-19. The following applies: 48 h, means of three independent experiments. Type of data set: cell-based, human.
Text: as §1, §2

Data set [4] relates to endometrial adenocarcinoma (ECC-1) cells. The experiment in a line: MTT cytotoxicity assay, ECC-1. To be noted: 48 h, means of three independent experiments. Type of data set: cell-based, human.
Text: as §1, §2

Data set [5] relates to breast adenocarcinoma (MDA-MB-231) cells. The experiment in a line: MTT cytotoxicity assay, MDA-MB-231. Type of data set: cell-based, human. The following applies: 48 h, means of three independent experiments.
Text: as §1, §2

The test system of data set [6] is normal prostate epithelium (PNT-1A) cells. Kind of data set: MTT cytotoxicity assay, PNT-1A. The following applies: normal cell, 48 h, means of three independent experiments, read-out: IC50 PNT-1A. The class given is cell-based, human.
Text: as §1, §2

The test system of data set [7] is colon adenocarcinoma (HT-29) cells. Kind of data set: MTT cytotoxicity assay, HT-29. Type of data set: cell-based, human. To be noted: 48 h, means of three independent experiments.
Text: as §1, §2

Data set [8] has as its system cervix carcinoma (HeLa) cells. Kind of data set: MTT cytotoxicity assay, HeLa. The following applies: for IC50: cancer cell, MTT, 48 h, means of three independent experiments. The class given is cell-based, human.
Text: as §1, §2

Data set [9] deals with human colorectal adenocarcinoma (DLD-1) cells. Kind of data set: MTT cytotoxicity assay, DLD-1. The class given is cell-based. To be noted: 48 h, means of three independent experiments.
Text: as §1, §2

Data set [10] concerns prostate cancer (DU-145) cells. The experiment in a line: MTT cytotoxicity assay, DU-145. The following applies: cancer cell, MTT, 48 h, means of three independent experiments, read-out: IC50 DU-145. The class given is cell-based, human.
Text: as §1, §2

In general, IC50 refers to the concentration that gives 50% inhibition.

On to `COc1ccc(N=N[N]([Ag][O]C(C)=O)c2cccc(S(N)(=O)=O)c2)cc1` [Compound L2-Ag], for which the half-maximal inhibitory concentration (IC50) in data set [1] (cancer cell) came to 28.2 µM; in [2] (normal cell), 17.8 ± 1.7 µM; in data set [3] (normal cell) it was 22 ± 10.2 µM; in data set [4] (cancer cell) it was 29.1 µM; in data set [5] (cancer cell), 30.3 ± 3 µM; in data set [6] it was 17.5 ± 17.5 µM. Besides, the concentration for half-maximal inhibition (IC50) in data set [7] (cancer cell) was 24.9 ± 2.5 µM; in data set [8] it was 2.8 ± 0.1 µM; in [9] (cancer cell), 31.6 µM; in data set [10], 18.6 µM. Also, the “fold increased potency than the reference drug 5-FU” value in data set [8] (HeLa cells, ratio of IC50 values) amounted to 6.84 fold.

For `CC(=O)[O][Ag][N](N=Nc1cc(C)cc(C)c1)c1cccc(S(N)(=O)=O)c1` [Compound L5-Ag], the half-inhibitory concentration (IC50) is 112 ± 13.4 µM in [1] (cancer cell); 30.5 ± 4.5 µM in data set [2] (normal cell); 109 ± 11 µM in [3] (normal cell); 136 ± 13.5 µM in data set [4] (cancer cell); 148 ± 19.5 µM in data set [5] (cancer cell); 111 ± 11 µM in data set [6]. For the same compound, the IC50 in data set [7] (cancer cell) is 162 ± 16.1 µM; in data set [8] it was 9.61 µM and 9.6 µM; in data set [9] (cancer cell), 111 ± 9 µM; in data set [10], 100 ± 10.1 µM.

For the compound `COc1ccc(/N=N/Nc2cccc(S(N)(=O)=O)c2)cc1` [Compound L2, 3–(3-(4-methoxyphenyl)triaz-1-en-1-yl)], the half-maximal inhibitory concentration (IC50) in data set [1] (Homo sapiens, PC-3, cancer cell) was 171 ± 20.5 µM; in data set [2] (Homo sapiens, HEK293, normal cell) it was 146 ± 13.4 µM; in data set [3] (Homo sapiens, ARPE-19, normal cell), over 300 µM; in data set [4] (Homo sapiens, ECC-1, cancer cell), over 300 µM; in data set [5] (Homo sapiens, MDA-MB-231, cancer cell), 144 ± 2.4 µM; in data set [6] (Homo sapiens, PNT1A), over 300 µM. Besides, the IC50 stood at 265 ± 30 µM in data set [7] (Homo sapiens, HT-29, cancer cell); 768 ± 6.5 µM in data set [8] (Homo sapiens, HeLa); 223 ± 8.3 µM in [9] (Homo sapiens, DLD-1, cancer cell); 154 ± 25.6 µM in data set [10] (Homo sapiens, DU-145).
